Columns and labels:
A53T a-syn = A53T a-syn protein level in HEK293 cells by immunoblot; format: cell-based, human
Experimental: Infected or transfected cells were scraped from six-well dishes and lysed with lysis buffer (50 mM Tris-HCl pH 7.4, 1% Nonidet P-40, 150 mM NaCl, 1 mM EDTA, 1× protease inhibitor mixture (Sigma)) for 30 min at 4 °C. The insoluble pellet was removed following a 10,000 rpm spin for 5 min at 4 °C. Lysates were analyzed by SDS-PAGE/immunoblot using 4–20% Mini-PROTEAN Tris-glycine gels (Bio-Rad), transferred to polyvinylidene fluoride (PVDF) membranes, and blocked in 5% milk containing PBS-Tween-20 (0.1%) for 1 h. PVDF membranes were then incubated with specified primary antibodies followed by incubation with horseradish peroxidase-conjugated secondary antibodies (anti-mouse HRP-linked, Cell Signaling, catalog #7076, 1:5000; anti-rabbit HRP-linked, Cell Signaling, catalog #7074, 1:5000) and detected using enhanced chemiluminescence (GE Healthcare). Anti-a-syn antibody (clone 42) was obtained from BD Biosciences (catalog #610787, 1:1000). Anti-LAMP1 antibody was obtained from Abcam (catalog #ab24170, 1:500). Anti-beta-actin antibody was obtained from Cell Signaling (13E5) (catalog #4970, 1:1000). Anti-CD63 antibody was obtained from R&D Systems (catalog #MAB50482-SP, 1:1000).

WT a-syn oligomers = assay: Luciferase PCA of WT a-syn oligomers; format: cell-based, human; settings: for Oligomers %: WT oligomers, luciferase activity; for Effect on WT a-syn oligomers: luciferase PCA
Experimental: (§1) Oligonucleotides encoding the specific peptides were synthesized and individually cloned into the pLJM1 nGFP lentiviral vector. HEK293T cells were infected with individual constructs, and cell viability was assessed using Cell Titer-Glo luminescent assay (Promega) at 72 h post infection.
(§2) Tet-off HEK293 cells stably expressing split luciferase-a-syn constructs and tet-off parent HEK293 cell lines were maintained in DMEM supplemented with 10% FBS and 1% pen/strep/glutamine. […] Cells were trypsinized from subconfluent culture and seeded in a 96-well plate at a density of 15,000 cells per well. Cells were incubated overnight at 37 °C in 5% CO2. Cells were transfected with GFP-peptide plasmids. After 6 h of incubation, 20 µL of cell medium was transferred to a black flat-bottomed 96-well plate. Fifty microliters of Working solution (Pierce Gaussia-Firefly Luciferase Dual Assay Kit, Thermo Scientific, 16181) were added into each well containing cell medium. Immediately after adding the reagent, samples were read using a luminometer with a 480 nm filter.

A53T a-syn oligomers = assay: Luciferase PCA of A53T a-syn oligomers; format: cell-based, human; settings: for Effect on A53T a-syn oligomers: luciferase PCA, n=3
Experimental: as §1, §2

[1] = test system: WT a-syn expressing HEK293 cells; assay: Cell Titer-Glo cell viability, WT a-syn expressing cells; format: cell-based, human; settings: WT alpha-synuclein; for Cell viability: MG132 10 μM, 72 h; for cell viability effect of peptides: Supp Figure 1A;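 on cell viability effect of peptides: measured without MG132 proteasome inhibitor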
Experimental: as §1
(§3) Cells were trypsinized from subconfluent cultures as described earlier, suspended in culture media, and then seeded into triplicate wells of a 96-well plate (100 µl/well) at a density of 1.5 × 10^4 cells per well with standard culture conditions of 5% CO2 at 37 °C. Cells were infected with lentivirus expressing peptide at a MOI of 5 for 72 h or transfected with plasmid for 72 h. Cell Titer-Glo reagent was added to each well (30 µL), according to the manufacturer’s protocol and […].

Parent HEK293 cells = assay: Cell Titer-Glo cell viability, parent cells; format: cell-based, human; settings: for Cell viability: MG132 10 μM, 72 h; for cell viability effect of peptides: Supp Figure 1A;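 on cell viability effect of peptides: measured without MG132 proteasome inhibitor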
Experimental: as §1, §3

[2] = test system: A53T a-syn expressing HEK293 cells; assay: Cell Titer-Glo cell viability, A53T a-syn expressing cells; format: cell-based, human; settings: for cell viability effect of peptides: A53T a-syn, Supp Figure 1A; for Cell viability: A53T, MG132 10 μM, 72 h; for Effect of MIM motif peptides on cell viability in A53T a-syn expressing cells: Supp Figure 1H
Method in brief: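 HEK293 cells (1.5 × 10^4 per well, triplicate) were infected with peptide-expressing lentivirus at MOI 5 or transfected with plasmid for 72 h at 37 °C, 5% CO2. Viability was then measured with Cell Titer-Glo, […].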

Flag-CHMP2B = assay: Co-immunoprecipitation of Flag-CHMP2B with GFP-peptides; format: cell-based; settings: n = 3
Experimental: HEK293T cells were co-transfected with Flag-tagged target protein, HA-tagged source protein, and GFP-tagged peptide or GFP. Cells were lysed 48 h after transfections with radioimmune precipitation assay buffer (50 mM Tris-HCl pH 7.4, 1% Nonidet P-40, 150 mM NaCl, 1 mM EDTA, 10 mM Na3VO4, 10 mM sodium pyrophosphate, 25 mM NaF, 1× protease inhibitor mixture (Sigma)) for 30 min at 4 °C and co-immunoprecipitated with Flag beads (Clontech). The resulting immunocomplexes were analyzed by immunoblot using the appropriate antibodies. Protein samples were separated using 4–20% Mini-PROTEAN Tris-glycine gels (Bio-Rad) transferred to PVDF membranes and blocked in 5% milk containing PBS-Tween-20 (0.1%) for 1 h. PVDF membranes were then incubated with specified primary antibodies followed by incubation with horseradish peroxidase-conjugated secondary antibodies (anti-mouse HRP-linked, Cell Signaling, catalog #7076, 1:5000; anti-rabbit HRP-linked, Cell Signaling, catalog #7074, 1:5000) and detected using enhanced chemiluminescence (GE Healthcare). HA antibodies were obtained from Santa Cruz (catalog #7392, 1:2000), GFP antibodies were purchased from Abcam (catalog #ab290, 1:2000), and Flag antibodies were purchased from Sigma (catalog #A8592, 1:1000).

Substance	Effect on A53T a-syn protein level (A53T a-syn)	Oligomers % (WT a-syn oligomers; column 1) [%]	Oligomers % (WT a-syn oligomers; column 2) [%]	Oligomers % (WT a-syn oligomers; column 3) [%]	Oligomers % (WT a-syn oligomers; column 4) [%]	Oligomers % (WT a-syn oligomers; column 5) [%]	Effect on WT a-syn oligomers (WT a-syn oligomers)	Effect on A53T a-syn oligomers (A53T a-syn oligomers)	A53T a-syn oligomers as measured by luciferase activity (A53T a-syn oligomers; replicate 1)	A53T a-syn oligomers as measured by luciferase activity (A53T a-syn oligomers; replicate 2)	A53T a-syn oligomers as measured by luciferase activity (A53T a-syn oligomers; replicate 3)	Cell viability ([1]; replicate 1)	Cell viability ([1]; replicate 2)	Cell viability ([1]; replicate 3)	cell viability effect of peptides ([1]; replicate 1)	cell viability effect of peptides ([1]; replicate 2)	cell viability effect of peptides ([1]; replicate 3)	Cell viability (Parent HEK293 cells; replicate 1)	Cell viability (Parent HEK293 cells; replicate 2)	Cell viability (Parent HEK293 cells; replicate 3)	further results
IPIQLKA [PDpep1, initial screen hit peptide IPIQLKA]	reduction in a-syn	91.6523	79.1738	70.9983	79.1738	65.4045	significant reduction in a-syn oligomers	significant reduction in A53T a-syn oligomers	221224	258154	261396	3500	3600	3700	12400	12300	12500	3800	3900	4100	cell viability effect of peptides (Parent HEK293 cells; replicate 1): 12300; cell viability effect of peptides (Parent HEK293 cells; replicate 2): 12100; cell viability effect of peptides (Parent HEK293 cells; replicate 3): 12500; cell viability effect of peptides ([2]; replicate 1): 12800; cell viability effect of peptides ([2]; replicate 2): 14040; cell viability effect of peptides ([2]; replicate 3): 13200; Cell viability ([2]; replicate 1): 5500; Cell viability ([2]; replicate 2): 5200; Cell viability ([2]; replicate 3): 5000; Effect of MIM motif peptides on cell viability in A53T a-syn expressing cells ([2]; replicate 1): 5748; Effect of MIM motif peptides on cell viability in A53T a-syn expressing cells ([2]; replicate 2): 5350; Effect of MIM motif peptides on cell viability in A53T a-syn expressing cells ([2]; replicate 3): 5562; Interaction with CHMP2B (Flag-CHMP2B): interacted with Flag-CHMP2B
DEEIERQLKALG [PDpep1.3]	reduction in a-syn	99.8279	83.0465	73.1497	78.3132	63.6833	significant reduction in a-syn oligomers	significant reduction in A53T a-syn oligomers	222198	195592	221562	5800	5300	6000	14300	13800	14100	4900	4200	4500	cell viability effect of peptides (Parent HEK293 cells; replicate 1): 13700; cell viability effect of peptides (Parent HEK293 cells; replicate 2): 13400; cell viability effect of peptides (Parent HEK293 cells; replicate 3): 13100; Effect on cell survival/viability ([2]; A53T a-syn cells): most prominent effects on cell survival; cell viability effect of peptides ([2]; replicate 1): 15000; cell viability effect of peptides ([2]; replicate 2): 15800; cell viability effect of peptides ([2]; replicate 3): 15200; Cell viability ([2]; replicate 1): 8500; Cell viability ([2]; replicate 2): 9100; Cell viability ([2]; replicate 3): 9000; Effect of MIM motif peptides on cell viability in A53T a-syn expressing cells ([2]; replicate 1): 8764; Effect of MIM motif peptides on cell viability in A53T a-syn expressing cells ([2]; replicate 2): 8800; Effect of MIM motif peptides on cell viability in A53T a-syn expressing cells ([2]; replicate 3): 8162; Interaction with CHMP2B (Flag-CHMP2B): interacted with Flag-CHMP2B

Source: paper PMC10115881, “Disrupting the α-synuclein-ESCRT interaction with a peptide inhibitor mitigates neurodegeneration in preclinical models of Parkinson’s disease” (Nature Communications, 2023)
